# From patent publication US20050288351A1, “Azaspiro compounds for the treatment of pain” (Schwarz Pharma AG, priority 2002, published 2005)
# Experiments:
# NMRl mice = assay: formalin test, in-vivo test for determining the analgesic efficacy; parameters: key to Mean deviation of the pain reaction compared to control (%) (n minutes after administration of formalin) 20-25′ / Mean deviation of the pain reaction compared to control (%) (n minutes after administration of formalin) 30-35′: (+): Intensified pain reaction; details: for Mean deviation of the pain reaction compared to control (%) (n minutes after administration of formalin) 20-25′: 20-25′ after formalin; for Mean deviation of the pain reaction compared to control (%) (n minutes after administration of formalin) 30-35′: 30-35′ after formalin; for Mean deviation of the pain reaction compared to control (%) (n minutes after administration of formalin) 40-45′: 40-45′ after formalin; for average reduction of the pain reaction: after 30-45 minutes in the formalin test
# Protocol: (§1) In each case, the maximum dosage selected for the concentration of azaspiro compounds was held, by a factor of about 2, below the toxic dose previously determined in the IRWIN test (Irwin, Psychopharmacologia 13 (1968) 222).
# A reduction in the pain reaction is expressed in negative percentage figures.
# The test was conducted as described by Wheeler-Aceto (Psychopharmacology 104, 1991, 35).
# NMRl mice having a weight of 20-25 g were kept under controlled conditions (22±2° C., 40-70% relative humidity). 25 μl of a 5% […] solution was injected in the hind leg and the leg-licking frequency was then clocked for 5 minutes each at defined intervals (20, 30, 40 minutes).
# (§2) First, the highest possible non-toxic concentration of the respective test substances that could be used was determined by an IRWIN test (Irwin, Psychopharmacologia 13, 1968, 222).
# The test substances were dissolved in a physiological salt solution with 0.5% sodium carboxymethyl cellulose and were each measured in 1-3 dosages that had been applied intraperitoneally 10 minutes before administration of formalin. The comparative reference value was provided by a control excipient (10 ml/kg).
# The test was performed in blind fashion on 10 mice per test series. The evaluation was based on a comparison of the treated animals with control excipients at three different times. […] Accordingly, an average 50% reduction of the pain reaction for the treated animals is obtained when in a defined period (e.g. 30-35′ after the formalin injection) the leg-licking duration (averaged over the 10 test animals) is reduced by 50% compared to the untreated animals. The statistical significance was determined using the Mann-Whitney U-test.
# [1] = side effects above the maximum tolerable dosages (IRWIN test); type: in vivo
# Protocol: as §1, with “FIG. 1 and Table 1 show the reaction of test animals (10 mice each) 20-45 minutes after the intraperitoneal administration of selected compounds. In” for “In”
# as §2
# [2] = 8 mg/kg i.p., Test series 1, n = 10 mice
# [3] = 8 mg/kg i.p., Test series 2, n = 10 mice
# [4] = 16 mg/kg i.p., Test series 1, n = 10 mice
# [5] = 16 mg/kg i.p., Test series 2, n = 10 mice
# [6] = 32 mg/kg i.p., Test series 1, n = 10 mice
# [7] = 32 mg/kg i.p., Test series 2, n = 10 mice
# [8] = 4 mg/kg i.p., Test series 2, n = 10 mice
# [9] = 64 mg/kg i.p., Test series 1, n = 10 mice
# [10] = 64 mg/kg i.p., Test series 2, n = 10 mice
SMILES,"Mean deviation of the pain reaction compared to control (%) (n minutes after administration of formalin) 20-25′ (NMRl mice; 32 mg/kg i.p., n = 10 mice)","Mean deviation of the pain reaction compared to control (%) (n minutes after administration of formalin) 30-35′ (NMRl mice; 32 mg/kg i.p., n = 10 mice)","Mean deviation of the pain reaction compared to control (%) (n minutes after administration of formalin) 40-45′ (NMRl mice; 32 mg/kg i.p., n = 10 mice)",Mean deviation of the pain reaction compared to control (%) (n minutes after administration of formalin) 20-25′ (NMRl mice; [4]),Mean deviation of the pain reaction compared to control (%) (n minutes after administration of formalin) 30-35′ (NMRl mice; [4]),Mean deviation of the pain reaction compared to control (%) (n minutes after administration of formalin) 40-45′ (NMRl mice; [4]),Mean deviation of the pain reaction compared to control (%) (n minutes after administration of formalin) 20-25′ (NMRl mice; [5]),Mean deviation of the pain reaction compared to control (%) (n minutes after administration of formalin) 30-35′ (NMRl mice; [5]),Mean deviation of the pain reaction compared to control (%) (n minutes after administration of formalin) 20-25′ (NMRl mice; [6]),Mean deviation of the pain reaction compared to control (%) (n minutes after administration of formalin) 30-35′ (NMRl mice; [6]),Mean deviation of the pain reaction compared to control (%) (n minutes after administration of formalin) 40-45′ (NMRl mice; [6]),other results
"C1CCC2(CC1)CCNC2 [SPM 0019, 2-azaspiro[4.5]decane]",−67%,−21,−26,–,–,–,–,–,–,–,–,–
"O=C1CC2(CCCCC2)CN1 [GBP-L, 2-azaspiro[4.5]decan-3-on, reference compound]",–,–,–,−74,−40,−41,(+),(+),−64,−15,−46,lethality [1]: significant lethality rate; Mean deviation of the pain reaction compared to control (%) (n minutes after administration of formalin) 20-25′ (NMRl mice; [2]): −58%; Mean deviation of the pain reaction compared to control (%) (n minutes after administration of formalin) 30-35′ (NMRl mice; [2]): −18%; Mean deviation of the pain reaction compared to control (%) (n minutes after administration of formalin) 40-45′ (NMRl mice; [2]): −15%; Mean deviation of the pain reaction compared to control (%) (n minutes after administration of formalin) 20-25′ (NMRl mice; [3]): (+); Mean deviation of the pain reaction compared to control (%) (n minutes after administration of formalin) 30-35′ (NMRl mice; [3]): (+); Mean deviation of the pain reaction compared to control (%) (n minutes after administration of formalin) 20-25′ (NMRl mice; [7]): (+); Mean deviation of the pain reaction compared to control (%) (n minutes after administration of formalin) 30-35′ (NMRl mice; [7]): −10%
"ON=C1CC2(CCCCC2)CN1 [SPM 6850, N-(2-azaspiro[4.5]decane-3)-oxim]",(+),−50,−38,–,–,–,–,–,–,–,–,average reduction of the pain reaction (NMRl mice; 32 mg/kg per Table 1): 44%
"S=C1CC2(CCCCC2)CN1 [SPM 0013, 2-azaspiro[4.5]decane-3-thion]",−99%,−32,−4,–,–,–,–,–,–,–,–,–
"S=C1CC2(CCCCCC2)CN1 [SPM 6868, 2-azaspiro[4.6]undecane-3-thion]",–,–,–,−62,−29,−49,−42%,−30%,−83,−0,−24,melting point: 132.3 °C; Mean deviation of the pain reaction compared to control (%) (n minutes after administration of formalin) 20-25′ (NMRl mice; [8]): −53%; Mean deviation of the pain reaction compared to control (%) (n minutes after administration of formalin) 30-35′ (NMRl mice; [8]): −7%; Mean deviation of the pain reaction compared to control (%) (n minutes after administration of formalin) 40-45′ (NMRl mice; [8]): −16%; Mean deviation of the pain reaction compared to control (%) (n minutes after administration of formalin) 40-45′ (NMRl mice; [5]): −31%; Mean deviation of the pain reaction compared to control (%) (n minutes after administration of formalin) 20-25′ (NMRl mice; [9]): −89%; Mean deviation of the pain reaction compared to control (%) (n minutes after administration of formalin) 30-35′ (NMRl mice; [9]): −67%; Mean deviation of the pain reaction compared to control (%) (n minutes after administration of formalin) 40-45′ (NMRl mice; [9]): −83%; Mean deviation of the pain reaction compared to control (%) (n minutes after administration of formalin) 20-25′ (NMRl mice; [10]): −100%; Mean deviation of the pain reaction compared to control (%) (n minutes after administration of formalin) 30-35′ (NMRl mice; [10]): −98%; Mean deviation of the pain reaction compared to control (%) (n minutes after administration of formalin) 40-45′ (NMRl mice; [10]): −93%
"ON=C1CC2(CCCCCC2)CN1 [SPM 6873, N-(2-azaspiro[4.6]undecane-3)-oxim]",–,–,–,–,–,–,–,–,–,–,–,"Mean deviation of the pain reaction compared to control (%) (n minutes after administration of formalin) 20-25′ (NMRl mice; 16 mg/kg i.p., n = 10 mice): (+); Mean deviation of the pain reaction compared to control (%) (n minutes after administration of formalin) 30-35′ (NMRl mice; 16 mg/kg i.p., n = 10 mice): −35%; Mean deviation of the pain reaction compared to control (%) (n minutes after administration of formalin) 40-45′ (NMRl mice; 16 mg/kg i.p., n = 10 mice): −38%; average reduction of the pain reaction (NMRl mice; 16 mg/kg per Table 1): 36.5%"
